Source: PubChem BioAssay (NCI)
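Cells were grown in 96-well plates and exposed to each compound for 48 hours at five concentrations; endpoints were interpolated linearly between bracketing concentrations, or set to the highest concentration if not reached. Here, GI50 denotes the concentration required for 50% inhibition of growth. TGI denotes the concentration required for complete inhibition of growth.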

How the values were obtained:
Test in all cases: inhibition of tumour cell growth, NCI panel, 48 h
[1] = system: UO-31 renal
[2] = system: COLO 205 colon
[3] = system: MALME-3M melanoma
[4] = system: OVCAR-5 ovarian
[5] = system: SR leukemia
[6] = system: NCI-H23 lung
[7] = system: M14 melanoma
[8] = system: HOP-92 NSCLC
[9] = system: 786-0 renal
[10] = system: A498 renal
[11] = system: SF-295 CNS
[12] = system: DU-145 prostate
[13] = system: NCI-H460 lung
[14] = system: NCI/ADR-RES ovarian
[15] = system: PC-3 prostate
[16] = system: K-562 leukemia
[17] = system: HCC-2998 colon
[18] = system: HT29 colon
[19] = system: NCI-H226 lung
[20] = system: MDA-MB-231 breast
[21] = system: SNB-19 CNS
[22] = system: EKVX NSCLC
[23] = system: NCI-H522 lung
[24] = system: SK-MEL-5 melanoma
[25] = system: A549 NSCLC
[26] = system: KM12 colon
[27] = system: HOP-62 NSCLC
[28] = system: MDA-MB-435
[29] = system: HL-60(TB) leukemia
[30] = system: U251 CNS
[31] = system: MOLT-4 leukemia
[32] = system: SF-268 CNS
[33] = system: SK-MEL-2 melanoma
[34] = system: SNB-75 CNS
[35] = system: BT-549 breast
[36] = system: OVCAR-4 ovarian
[37] = system: SN12C renal
[38] = system: OVCAR-8 ovarian
[39] = system: UACC-62 melanoma
[40] = system: TK-10 renal
[41] = system: LOX IMVI melanoma
[42] = system: SW-620 colon
[43] = system: UACC-257 melanoma
[44] = system: SK-OV-3 ovarian
[45] = system: OVCAR-3 ovarian
[46] = system: SK-MEL-28 melanoma
[47] = system: CAKI-1 renal
[48] = system: ACHN renal
[49] = system: RXF 393 renal
[50] = system: IGROV1 ovarian
[51] = system: HCT-15 colon
[52] = system: HS 578T breast
[53] = system: MCF7 breast
[54] = system: HCT-116 colon
[55] = system: CCRF-CEM leukemia
[56] = system: SF-539 CNS
[57] = system: RPMI-8226 leukemia
[58] = system: T-47D breast

C#Cc1c(F)ccc2cc(O)cc(-c3ncc4c(N5CC6CCC(C5)N6)nc(OC[C@@]56CCCN5C[C@H](F)C6)nc4c3F)c12
GI50 [1]: > 34.8 µM | TGI [1]: > 50.2 µM | GI50 [2]: 16.1 µM | TGI [2]: 45.1 µM | GI50 [3]: 15.5 µM | TGI [3]: 29.3 µM | GI50 [4]: 2.51 µM | TGI [4]: 13.5 µM | GI50 [5]: 6.53 µM | TGI [5]: > 100 µM | GI50 [6]: 1.94 µM | TGI [6]: 15.1 µM | GI50 [7]: 14 µM | TGI [7]: 29.6 µM | GI50 [8]: 4.01 µM | TGI [8]: 16.5 µM | GI50 [9]: 15 µM | TGI [9]: 31 µM | GI50 [10]: 15.7 µM | TGI [10]: 34.2 µM | GI50 [11]: 15.9 µM | TGI [11]: 32 µM | GI50 [12]: 14.9 µM | TGI [12]: 28.6 µM | GI50 [13]: 6.87 µM | TGI [13]: 21.2 µM | GI50 [14]: > 100 µM | TGI [14]: > 100 µM | GI50 [15]: 14.8 µM | TGI [15]: 33.8 µM | GI50 [16]: 8.12 µM | TGI [16]: > 65.5 µM | GI50 [17]: 1.32 µM | TGI [17]: 17.5 µM | GI50 [18]: 9.99 µM | TGI [18]: 31 µM | GI50 [19]: 15.1 µM | TGI [19]: 35.1 µM | GI50 [20]: 2.36 µM | TGI [20]: 13.7 µM | GI50 [21]: 13.4 µM | TGI [21]: 26.3 µM | GI50 [22]: 21.7 µM | TGI [22]: > 54.6 µM | GI50 [23]: 14.5 µM | TGI [23]: 31.3 µM | GI50 [24]: 14.9 µM | TGI [24]: 28.2 µM | GI50 [25]: 10.9 µM | TGI [25]: 45.2 µM | GI50 [26]: 5.03 µM | TGI [26]: 17.5 µM | GI50 [27]: 2.18 µM | TGI [27]: 22.4 µM | GI50 [28]: 13.6 µM | TGI [28]: 27.3 µM | GI50 [29]: 8.23 µM | TGI [29]: 26.6 µM | GI50 [30]: 10.9 µM | TGI [30]: 31.5 µM | GI50 [31]: 8.72 µM | TGI [31]: 28.4 µM | GI50 [32]: 12 µM | TGI [32]: 25.4 µM | GI50 [33]: 16.9 µM | TGI [33]: 32.9 µM | GI50 [34]: 17.1 µM | TGI [34]: 46.4 µM | GI50 [35]: 8.22 µM | TGI [35]: 22.8 µM | GI50 [36]: 16.8 µM | TGI [36]: 37.1 µM | GI50 [37]: 14.8 µM | TGI [37]: 31 µM | GI50 [38]: 17.3 µM | TGI [38]: 36.4 µM | GI50 [39]: 16.6 µM | TGI [39]: 30.5 µM | GI50 [40]: 21.8 µM | TGI [40]: > 55.5 µM | GI50 [41]: 15.5 µM | TGI [41]: 41.9 µM | GI50 [42]: 1.32 µM | TGI [42]: 10.3 µM | GI50 [43]: 18.1 µM | TGI [43]: 35.1 µM | GI50 [44]: 17.7 µM | TGI [44]: 35.6 µM | GI50 [45]: 12.7 µM | TGI [45]: 25.9 µM | GI50 [46]: 15.6 µM | TGI [46]: 29.1 µM | GI50 [47]: 17.5 µM | TGI [47]: 35.6 µM | GI50 [48]: > 39.4 µM | TGI [48]: > 53.8 µM | GI50 [49]: 13.5 µM | TGI [49]: 27.5 µM | GI50 [50]: 13.9 µM | TGI [50]: 29.9 µM | GI50 [51]: 34.7 µM | TGI [51]: > 50.6 µM | GI50 [52]: 8.47 µM | TGI [52]: 28.2 µM | GI50 [53]: 8.48 µM | TGI [53]: 24 µM | GI50 [54]: 2.62 µM | TGI [54]: 14 µM | GI50 [55]: 8.21 µM | TGI [55]: 29.1 µM | GI50 [56]: 14 µM | TGI [56]: 27.2 µM | GI50 [57]: 5.1 µM | TGI [57]: 29.9 µM | GI50 [58]: 16.3 µM | TGI [58]: 40.1 µM
